This is an account of results in BindingDB's records for doi:10.1016/s0960-894x(02)00137-3 (Kingston University, 2002).

A word on the pIC50: it is the IC50 on a negative log10 scale, so that one unit is a factor of ten.

pIC50: −log10 of the molar value.

The target in the assay is T1, Steryl-sulfatase (Homo sapiens, UniProt P08842).
T1 sequence (P08842 whole entry): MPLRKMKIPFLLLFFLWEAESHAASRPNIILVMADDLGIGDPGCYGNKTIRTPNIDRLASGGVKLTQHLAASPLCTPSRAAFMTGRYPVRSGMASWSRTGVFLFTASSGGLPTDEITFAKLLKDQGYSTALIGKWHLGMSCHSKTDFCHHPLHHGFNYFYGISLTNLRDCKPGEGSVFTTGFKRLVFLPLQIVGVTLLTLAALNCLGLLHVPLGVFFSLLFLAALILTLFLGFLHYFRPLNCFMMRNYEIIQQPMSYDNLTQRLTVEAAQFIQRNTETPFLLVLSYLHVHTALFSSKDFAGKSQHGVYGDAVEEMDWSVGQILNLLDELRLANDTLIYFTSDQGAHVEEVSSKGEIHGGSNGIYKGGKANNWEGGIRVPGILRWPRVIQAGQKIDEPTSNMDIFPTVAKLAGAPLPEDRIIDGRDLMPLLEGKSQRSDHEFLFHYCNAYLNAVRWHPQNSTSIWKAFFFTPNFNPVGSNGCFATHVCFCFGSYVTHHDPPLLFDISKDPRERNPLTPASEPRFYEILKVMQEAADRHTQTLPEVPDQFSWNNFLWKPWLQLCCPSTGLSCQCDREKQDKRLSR
Description: ChEBML_68022. The source says: In vitro inhibition of estrone sulfatase.
`NS(=O)(=O)OCC(Cl)(Cl)Cl` [Sulfamic acid 2,2,2-trichloro-ethyl ester] gave a pIC50 of 3.12.

The compound `NS(=O)(=O)Oc1ccc(F)cc1` [4-fluorophenyl sulfamate] had a pIC50 of 3.27.

As to `NS(=O)(=O)Oc1ccc(I)cc1` [Sulfamic acid 4-iodo-phenyl ester], the pIC50 is 3.25.

Compound `Cc1ccc(OS(N)(=O)=O)cc1` [Sulfamic acid p-tolyl ester] showed a pIC50 of less than 2.00.

Turning to `NS(=O)(=O)Oc1ccccc1`, the pIC50 is less than 2.00.

`Cc1cccc(OS(N)(=O)=O)c1` [Sulfamic acid m-tolyl ester]: the pIC50 was 2.68.

`NS(=O)(=O)Oc1cccc(I)c1` [Sulfamic acid 3-iodo-phenyl ester] gave a pIC50 of 3.92. This pIC50 is 1.24 log units higher than that of the compound before.
